This note sets out measurements from ChEMBL document CHEMBL1127229, “New non-peptide angiotensin II receptor antagonists. 1: structure - activity relationships of a series of a series of 2(1H)-pyridinones” (1994).

Common to all, as to type: functional
Test [1] relates to Rattus norvegicus. In words: In vivo potency determined for AII-induced pressor response in normotensive rats, iv administration. The conditions noted are these: read-out: ID50 (the source's name).
Test [2] concerns Rattus norvegicus. In words: Tested for lowering of Blood pressure in spontaneous hypertensive rat at a dose of 10mg/kg, po at 6 hr.
Test [3] has as its system Rattus norvegicus. In words: In vivo potency determined for AII-induced pressor response in normotensive rats, iv. Conditions: read-out: ID50 (the source's name).

Consider `CCCc1cc(C(=O)O)cc(=O)n1Cc1ccc(-c2ccccc2-c2nn[nH]n2)cc1`, for which, in the test with Rattus norvegicus [1], the ED50 was determined as 0.078 mg/kg.

With `CCCc1cc(O)cc(=O)n1Cc1ccc(-c2ccccc2-c2nn[nH]n2)cc1`, the ED50 in the test on Rattus norvegicus [1] worked out at 0.048 mg/kg.

Consider `CCCc1cc(C(=O)NCCN(C)C)cc(=O)n1Cc1ccc(-c2ccccc2-c2nn[nH]n2)cc1`, for which the ED50 in the test on Rattus norvegicus [1] came to 0.18 mg/kg.

As to `CCCCc1cc(O)cc(=O)n1Cc1ccc(-c2ccccc2-c2nn[nH]n2)cc1`, the ED50 in the test on Rattus norvegicus [1] came out at 0.38 mg/kg. The BP decrease in the test on Rattus norvegicus [2] is given as 36%.

Take `CCCc1cc(N)c([N+](=O)[O-])c(=O)n1Cc1ccc(-c2ccccc2-c2nn[nH]n2)cc1`: the ED50 with Rattus norvegicus [3] is 4.8 mg/kg.

With `CCCc1cc(CO)cc(=O)n1Cc1ccc(-c2ccccc2-c2nn[nH]n2)cc1`, in the test on Rattus norvegicus [1], the ED50 was determined as 0.3 mg/kg.

As to `CCCCc1cc(O)c([N+](=O)[O-])c(=O)n1Cc1ccc(-c2ccccc2-c2nn[nH]n2)cc1`, the ED50 in the test on Rattus norvegicus [1] is 0.58 mg/kg.

Turning to `CCCc1cc(OCc2cccnc2)cc(=O)n1Cc1ccc(-c2ccccc2-c2nn[nH]n2)cc1`, the ED50 with Rattus norvegicus [1] stood at 0.72 mg/kg.

With `CCCc1cc(O)c(C)c(=O)n1Cc1ccc(-c2ccccc2-c2nn[nH]n2)cc1`, in the test on Rattus norvegicus [1], the ED50 was determined as 0.027 mg/kg.

As to `CCCCc1nc(Cl)c(CO)n1Cc1ccc(-c2ccccc2-c2nnn[n-]2)cc1.[K+]` [LOSARTAN POTASSIUM], the ED50 in the test on Rattus norvegicus [1] was 1.2 mg/kg.

With `CCCc1cccc(=O)n1Cc1ccc(-c2ccccc2-c2nn[nH]n2)cc1`, in the test with Rattus norvegicus [1], the ED50 came to 1.1 mg/kg.

Regarding `CCCc1cc(SC)cc(=O)n1Cc1ccc(-c2ccccc2-c2nn[nH]n2)cc1`, the ED50 in the test with Rattus norvegicus [1] worked out at 0.28 mg/kg.

As for `CCCc1cc(OC)cc(=O)n1Cc1ccc(-c2ccccc2-c2nn[nH]n2)cc1`, in the test with Rattus norvegicus [1], the ED50 amounted to 0.24 mg/kg.

On to `CCCc1cc(S)cc(=O)n1Cc1ccc(-c2ccccc2-c2nn[nH]n2)cc1`, for which, in the test on Rattus norvegicus [1], the ED50 came out at 0.017 mg/kg.

`CCc1cc(O)cc(=O)n1Cc1ccc(-c2ccccc2-c2nn[nH]n2)cc1`: the ED50 in the test on Rattus norvegicus [1] is 0.084 mg/kg.
